For orientation: EC50 means the concentration that produces a half-maximal response.

For assay [1], the target named is T1, CB1 receptor (Homo sapiens, UniProt P21554). The assay can be described thus: DiscoveRx HitHunter cAMP XS+ assay in cAMP Hunter cell line, allosteric modulation of CP55,940 response. Type of assay: cell-based. The settings on record: for Emax: read-out: cAMP activity ECMax (%). The method, then: Once it was established that the cells were healthy and growing normally, cells were passaged from flasks using cell dissociation reagent buffer and seeded into white walled clear bottom 384-well microplates for compound profiling. For profiling, cells were seeded at a density of 10000 cells per well in a total volume of 20 μL and were allowed to adhere and recover overnight prior to compound addition. Cells were treated the following day using the protocols shown below. cAMP modulation was determined using the DiscoveRx HitHunter cAMP XS+ assay.
T1 sequence (P21554 whole entry): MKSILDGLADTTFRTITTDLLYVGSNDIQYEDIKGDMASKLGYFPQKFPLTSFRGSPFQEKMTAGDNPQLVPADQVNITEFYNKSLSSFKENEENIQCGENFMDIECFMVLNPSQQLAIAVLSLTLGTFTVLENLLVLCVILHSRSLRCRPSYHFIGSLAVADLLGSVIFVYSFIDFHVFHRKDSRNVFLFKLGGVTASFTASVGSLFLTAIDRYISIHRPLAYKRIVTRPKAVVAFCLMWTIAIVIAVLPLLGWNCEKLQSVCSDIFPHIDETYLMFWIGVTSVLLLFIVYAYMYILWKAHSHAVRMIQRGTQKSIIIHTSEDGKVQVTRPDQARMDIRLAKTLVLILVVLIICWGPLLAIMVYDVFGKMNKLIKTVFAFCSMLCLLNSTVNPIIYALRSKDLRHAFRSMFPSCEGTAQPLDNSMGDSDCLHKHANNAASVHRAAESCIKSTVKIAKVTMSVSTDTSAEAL
Media was aspirated from cells and replaced with 10 μL 1:1 HBSS/Hepes: cAMP XS+ Ab reagent. Agonist (CP55,940) dose curves were performed to determine the EC20 value for the testing with the compounds of the present technology. 5 μL of 4× agonist was added to each well with an equal concentration of vehicle present. EC20 agonist concentration was determined directly from agonist dose curve.
(§1) For allosteric determination, cells were preincubated with compound followed by agonist challenge at the EC20 concentration of the agonist. 5 μL of 4× compound was added to cells and incubated at 37° C. for 30 minutes. 5 μL of 4× EC20 agonist was added to cells and incubated at 37° C. for 30 minutes.
Signal Detection: After appropriate compound incubation, assay signal was generated through incubation with 20 μL cAMP XS+ED/CL lysis cocktail for one hour followed by incubation with 20 μL cAMP XS+EA reagent for three hours at room temperature. Microplates were read following signal generation with a PerkinElmer Envision™ instrument for chemiluminescent signal detection.
(§2) Data Analysis: Dose curves were plotted using GraphPad Prism or Activity Base. The percentage activity is calculated using the following formula: % Activity=100%×(1−(mean RLU of test sample−mean RLU of MAX control)/(mean RLU of vehicle control [EC20 for PAM]−mean RLU of MAXcontrol).
(§3) Agonist (CP55,940) dose curves were performed for the CNR1 PathHunter and cAMP Hunter cell lines. […] The cAMP assay was performed in the presence of 20 μM forskolin (EC80).
(§4) In Vitro Evaluation: The in vitro evaluation of the covalent allosteric modulators was performed using as described previously.

Assay [2] has as its target T1, CB1 receptor. Nature of the assay: β-arrestin recruitment in CNR1 PathHunter cell line, allosteric modulation of CP55,940 response. In kind it is cell-based. The note with it: for Emax: read-out: β-arrestin activity EMax (%). The method, then:
as §1, §2, §3, §4
In general terms: Recruitment of arrestin is a read-out of receptor activation apart from second messengers.

Where [3] appears, read: Table 1, preincubation with compound, then CP55,940 challenge, 20 μM forskolin.
The mark [4] stands for this setting: Table 1, preincubation with compound, then CP55,940 challenge, 20 μM forskolin, read-out: cAMP EC50.
Setting [5] is: Table 1, CP55,940 as agonist, read-out: β-arrestin EC50.
Where [6] appears, read: Table 2, covalent allosteric modulators, read-out: cAMP activity EC50 (nm).
Setting [7] is: Table 2, covalent allosteric modulators, read-out: β-arrestin activity EC50 (nm).
Setting [8] is: Table 2, covalent allosteric modulators.

Turning to `O=C(Nc1ccc(Cl)cc1)Nc1cccc(-c2ccc(N3CCCC3)nc2)c1` [Compound 61, 1-(4-Chlorophenyl)-3-(3-(6-(pyrrolidin-1-yl)pyridin-3-yl)phenyl)urea], the cAMP % inhibition on CB1 receptor [1] (setting [3]) is 6%. In addition, the EC50 on CB1 receptor [1] (setting [4]) was greater than 10000 nM; at CB1 receptor [2] (setting [5]), 880 nM. Also, at CB1 receptor [2] (Table 1, CP55,940 as agonist), the β-arrestin % inhibition was determined as 105%.
For `O=C(Nc1cccc(-c2cccc(N3CCCC3)n2)c1)Nc1ccc(Cl)c(CCCCOC2CCCCO2)c1` (centres unmarked) [Compound 23b, 1-(4-Chloro-3-(4-((tetrahydro-2H-pyran-2-yl)oxy)butyl)phenyl)-3-(3-(6-(pyrrolidin-1-yl)pyridin-2-yl)phenyl)urea], in that order: 55%, 354 nM, 771 nM and 121%.
For `COC(=O)c1ccccc1NC(=O)Nc1cccc(-c2cccc(N3CCCC3)n2)c1` [Compound 15, Methyl 2-(3-(3-(6-(pyrrolidin-1-yl)pyridin-2-yl)phenyl)ureido)benzoate], in that order: 0.6%, greater than 10000 nM, 8520 nM and 24%.
Turning to `CCc1c(C(=O)NCCc2ccc(N3CCCCC3)cc2)[nH]c2ccc(N=C=S)cc12` [GAT100], the EC50 at CB1 receptor [1] (setting [6]) turned out to be 186 nM; on CB1 receptor [2] (setting [7]), 9.06 nM. Besides, the Emax at CB1 receptor [1] is 89.4%; on CB1 receptor [2], 106%.
With `COc1ccccc1NC(=O)Nc1cccc(-c2cccc(N3CCCC3)n2)c1` [Compound 10j, 1-(2-Methoxyphenyl)-3-(3-(6-(pyrrolidin-1-yl)pyridin-2-yl)phenyl)urea], the cAMP % inhibition at CB1 receptor [1] (setting [3]) is on record as 0%. Besides, the EC50 is greater than 10000 nM at CB1 receptor [1] (setting [4]) and 1230 nM on CB1 receptor [2] (setting [5]). The β-arrestin % inhibition at CB1 receptor [2] (Table 1, CP55,940 as agonist) stood at 93%.
For `O=C(Nc1ccc(Cl)cc1)Oc1cccc(-c2cccc(N3CCCC3)n2)c1` [Compound 31, 3-(6-(Pyrrolidin-1-yl)pyridin-2-yl)phenyl (4-chlorophenyl)carbamate], in that order: 8.8%, greater than 10000 nM, 8660 nM and 58%.
Take `O=C(Nc1cccc(-c2cccc(N3CCCC3)n2)c1)Nc1cccc2ccccc12` [Compound 10w, 1-(Naphthalen-1-yl)-3-(3-(6-(pyrrolidin-1-yl)pyridin-2-yl)phenyl)urea]: at CB1 receptor [1] (setting [3]), the cAMP % inhibition is on record as 69%. The values for the EC50 on CB1 receptor [1] (setting [4]) and at CB1 receptor [2] (setting [5]) were 1260 ± 125 nM and 1270 nM, respectively. The β-arrestin % inhibition on CB1 receptor [2] (Table 1, CP55,940 as agonist) worked out at 109%.
For the compound `O=C(Nc1ccc(N=C=S)cc1)Nc1cccc(-c2cccc(N3CCCC3)n2)c1` [GAT332], the EC50 at CB1 receptor [1] (setting [6]) turned out to be 119 nM; on CB1 receptor [2] (setting [7]), 24 nM. The Emax came out at 78.9% on CB1 receptor [1] and 106% at CB1 receptor [2].
With `O=C(Nc1ccc(C(F)(F)F)cc1)Nc1cccc(-c2cccc(N3CCCC3)n2)c1` [Compound 10e, 1-(3-(6-(Pyrrolidin-1-yl)pyridin-2-yl)phenyl)-3-(4-(trifluoromethyl)phenyl)urea], at CB1 receptor [1] (setting [3]), the cAMP % inhibition is listed as 161%. The values for the EC50 at CB1 receptor [1] (setting [4]) and at CB1 receptor [2] (setting [5]) were 218 nM and 51 nM, respectively. Besides, the β-arrestin % inhibition at CB1 receptor [2] (Table 1, CP55,940 as agonist) was found to be 128%.
As to `O=C(Nc1ccc(Cl)cc1)Nc1cccc(-c2ccnc(N3CCCC3)c2)c1` [Compound 57, 1-(4-Chlorophenyl)-3-(3-(2-(pyrrolidin-1-yl)pyridin-4-yl)phenyl)urea], the cAMP % inhibition at CB1 receptor [1] (setting [3]) came out at 50%. Moreover, the EC50 at CB1 receptor [1] (setting [4]) amounted to 9790 nM; on CB1 receptor [2] (setting [5]), 77 nM. Also, the β-arrestin % inhibition on CB1 receptor [2] (Table 1, CP55,940 as agonist) came out at 111%.
The matching figures for `N#C/N=C(/Nc1ccc(Cl)cc1)Nc1cccc(-c2cccc(N3CCCC3)n2)c1` [Compound 35, (Z)-1-(4-Chlorophenyl)-2-cyano-3-(3-(6-(pyrrolidin-1-yl)pyridin-2-yl)phenyl)guanidine]: 29%, 3340 nM, 3060 nM and 69%.
For `O=C(Nc1cccc(-c2cccc(N3CCCC3)n2)c1)Nc1ccccc1F` [Compound 10u, 1-(2-Fluorophenyl)-3-(3-(6-(pyrrolidin-1-yl)pyridin-2-yl)phenyl)urea], the cAMP % inhibition at CB1 receptor [1] (setting [3]) is given as 79%. In addition, the EC50 on CB1 receptor [1] (setting [4]) was 330 nM; at CB1 receptor [2] (setting [5]) it was 99 nM. Also, the β-arrestin % inhibition on CB1 receptor [2] (Table 1, CP55,940 as agonist) turned out to be 107%.
Consider `O=C(Nc1ccc(Cl)cc1)Nc1ccccc1-c1cccc(N2CCCC2)n1` [Compound 55, 1-(4-Chlorophenyl)-3-(2-(6-(pyrrolidin-1-yl)pyridin-2-yl)phenyl)urea], for which, at CB1 receptor [1] (setting [3]), the cAMP % inhibition stood at 110%. In addition, the EC50 amounted to 3400 nM at CB1 receptor [1] (setting [4]) and 5860 nM at CB1 receptor [2] (setting [5]). At CB1 receptor [2] (Table 1, CP55,940 as agonist), the β-arrestin % inhibition was 61%.
With `O=C(Nc1cccc(-c2cccc(N3CCCC3)n2)c1)Nc1ccccc1Oc1ccccc1` [Compound 10m, 1-(2-Phenoxyphenyl)-3-(3-(6-(pyrrolidin-1-yl)pyridin-2-yl)phenyl)urea], at CB1 receptor [1] (setting [3]), the cAMP % inhibition is listed as 18%. In addition, the EC50 on CB1 receptor [1] (setting [4]) was greater than 10000 nM; on CB1 receptor [2] (setting [5]) it was 795 nM. Further, the β-arrestin % inhibition at CB1 receptor [2] (Table 1, CP55,940 as agonist) was 80%.
The matching figures for `Cc1cc(Cl)ccc1NC(=O)Nc1cccc(-c2cccc(N3CCCC3)n2)c1` [Compound 10s, 1-(4-Chloro-2-methylphenyl)-3-(3-(6-(pyrrolidin-1-yl)pyridin-2-yl)phenyl)urea]: 18%, greater than 10000 nM, 209 nM and 109%.
Consider `O=C(Nc1cccc(-c2cccc(N3CCCC3)n2)c1)Nc1ccc(Cl)c(C#CCCO)c1` [Compound 22b, 1-(4-Chloro-3-(4-hydroxybut-1-yn-1-yl)phenyl)-3-(3-(6-(pyrrolidin-1-yl)pyridin-2-yl)phenyl)urea], for which the cAMP % inhibition at CB1 receptor [1] (setting [3]) amounted to 152%. For the same compound, the EC50 on CB1 receptor [1] (setting [4]) turned out to be 551 nM; on CB1 receptor [2] (setting [5]), 149 nM. For the same compound, the β-arrestin % inhibition on CB1 receptor [2] (Table 1, CP55,940 as agonist) came to 123%.
Regarding `O=C(Nc1ccc(Cl)cc1)Nc1cccc(-c2cccc(N3CCOCC3)n2)c1` [Compound 67a, 1-(4-Chlorophenyl)-3-(3-(6-morpholinopyridin-2-yl)phenyl)urea], on CB1 receptor [1] (setting [3]), the cAMP % inhibition is listed as 88%. Also, the EC50 at CB1 receptor [1] (setting [4]) was found to be 564 nM; on CB1 receptor [2] (setting [5]) it was 124 nM. For the same compound, on CB1 receptor [2] (Table 1, CP55,940 as agonist), the β-arrestin % inhibition was determined as 111%.
As for `CCc1c(C(=O)NCCc2ccc(N3CCCCC3)cc2)[nH]c2ccc(N=[N+]=[N-])cc12` [GAT206], the EC50 stood at 391 nM at CB1 receptor [1] (setting [6]) and 28 nM on CB1 receptor [2] (setting [7]). Further, the Emax at CB1 receptor [1] (setting [8]) was 89%; at CB1 receptor [2] (setting [8]), 106%.
For the compound `O=C(Nc1cccc(-c2cccc(N3CCCC3)n2)c1)Oc1ccc(Cl)cc1` [Compound 13b, 4-Chlorophenyl (3-(6-(pyrrolidin-1-yl)pyridin-2-yl)phenyl)carbamate], on CB1 receptor [1] (setting [3]), the cAMP % inhibition amounted to 3.5%. In addition, the EC50 was greater than 10000 nM at CB1 receptor [1] (setting [4]) and 5370 nM on CB1 receptor [2] (setting [5]). Moreover, on CB1 receptor [2] (Table 1, CP55,940 as agonist), the β-arrestin % inhibition is 24%.
The matching figures for `O=C(Nc1cccc(-c2cccc(N3CCCC3)n2)c1)Nc1ccccc1CCCCOC1CCCCO1` (centres unmarked) [Compound 23c, 1-(3-(6-(Pyrrolidin-1-yl)pyridin-2-yl)phenyl)-3-(2-(4-((tetrahydro-2H-pyran-2-yl)oxy)butyl)phenyl)urea]: 20%, greater than 10000 nM, 6190 nM and 69%.

These data come from US9926275B2 (priority 2013, dated 2018).
